From patent publication US12251459B2, “Compositions, formulations, and methods for hair treatment” (Oddity Labs, LLC, priority 2022, dated 2025)

tested on: human hair follicle dermal papilla cells (hFDPC); assay: Human follicle dermal papilla cells (hFDPC) proliferation assay; type: cell-based; conditions: hFDPCs supplemented with BIO, BMP-2 and FGFβ
From the text: In Table 8, A represents less than 20% of increased proliferation of hFDPCs, B represents 20-40%, and C represents larger than 40% of increased proliferation of hFDPCs.

Compound | Percent Increase Proliferation of hFDPCs (%)
C=CCc1cc(/C=C2\C(=O)NC(=S)N(c3ccc(OC)cc3)C2=O)cc(OC)c1O [I-17] | C (C represents larger than 40% of increased proliferation of hFDPCs)
COc1ccc(S(=O)(=O)N2CCC(C(=O)N3CCN(Cc4ccc5c(c4)OCO5)CC3)CC2)cc1C [VI-3, Methanone, [4-(1,3-benzodioxol-5-ylmethyl)-1-piperazinyl][1-[(4-methoxy-3-methylphenyl)sulfonyl]-4-piperidinyl]-] | B (B represents 20-40%)
Cc1ccc(S(=O)(=O)N2CCC(C(=O)N3CCN(Cc4nc5ccccc5s4)CC3)CC2)cc1 [VI-4, Methanone, [4-(2-benzothiazolylmethyl)-1-piperazinyl][1-[(4-methylphenyl)sulfonyl]-4-piperidinyl]-] | A (A represents less than 20% of increased proliferation of hFDPCs)
COc1ccc(S(=O)(=O)Nc2ccc(S(=O)(=O)NCCc3ccccc3)cc2)cc1 [VI-5, Benzenesulfonamide, 4-methoxy-N-[4-[[(2-phenylethyl)amino]sulfonyl]phenyl]-] | A (A represents less than 20% of increased proliferation of hFDPCs)
O=C(O)CC1SC(NN=Cc2ccc(OS(=O)(=O)c3ccc([N+](=O)[O-])cc3)cc2)=NC1=O (stereo not drawn) [VI-6, 5-Thiazoleacetic acid, 4,5-dihydro-2-[2-[[4-[[(4-nitrophenyl)sulfonyl]oxy]phenyl]methylene] hydrazinyl]-4-oxo-] | A (A represents less than 20% of increased proliferation of hFDPCs)
CCS(=O)(=O)n1[nH]c(-c2ccco2)nc1=N [VII-2, 1H-1,2,4-Triazol-5-amine, 1-(ethylsulfonyl)-3-(2-furanyl)-] | A (A represents less than 20% of increased proliferation of hFDPCs)
CCn1c(SCC(=O)c2ccc(S(=O)(=O)N3CCCC3)cc2)nnc1-c1ccco1 [VII-4, Ethanone, 2-[[4-ethyl-5-(2-furanyl)-4H-1,2,4-triazol-3-yl]thio]-1-[4-(1-pyrrolidinylsulfonyl)phenyl]-] | A (A represents less than 20% of increased proliferation of hFDPCs)
NC(=O)c1ccc(NC(=O)CCCc2nc(-c3ccccc3)no2)cc1 [VII-5, 1,2,4-Oxadiazole-5-butanamide, N-[4-(aminocarbonyl)phenyl]-3-phenyl-] | A (A represents less than 20% of increased proliferation of hFDPCs)
CCOC(=O)c1cnn(-c2ccc(C(=O)Nc3ccc(C(=O)NCC(=O)OC)cc3)cc2)c1C [VII-6, 1H-Pyrazole-4-carboxylic acid, 1-[4-[[[4-[[(2-methoxy-2-oxoethyl)amino]carbonyl]phenyl]amino]carbonyl]phenyl]-5-methyl-, ethyl ester] | A (A represents less than 20% of increased proliferation of hFDPCs)
CCOC(=O)c1cnn(-c2ccc(C(=O)Nc3ccc(S(=O)(=O)CC)cc3)cc2)c1C [VII-7, 1H-Pyrazole-4-carboxylic acid, 1-[4-[[[4-(ethylsulfonyl)phenyl]amino]carbonyl]phenyl]-5-methyl-, ethyl ester] | B (B represents 20-40%)
CCOC(=O)c1cnn(-c2cccc(NC(=O)C3CCN(c4ncccn4)CC3)c2)c1C [VII-8, 1H-Pyrazole-4-carboxylic acid, 5-methyl-1-[3-[[[1-(2-pyrimidinyl)-4-piperidinyl]carbonyl]amino]phenyl]-, ethyl ester] | A (A represents less than 20% of increased proliferation of hFDPCs)
NC1=NC2(CCCCCC2)n2c(nc3ccccc32)N1 [VII-9, Spiro[cycloheptane-1, 4′(1′H)-[1,3,5]triazino[1,2-a]benzimidazol]-2′-amine] | B (B represents 20-40%)
O=C1CNCc2[nH]c3ccccc3c2N1c1ccccc1 [VII-10, 1,4-Diazepino[6,5-b] indol-2(1H)-one, 3,4,5,6-tetrahydro-1-phenyl-] | B (B represents 20-40%)
NC1=NC2(CCCCC2)n2c(nc3ccccc32)N1 [VII-11, Spiro[cyclohexane-1, 4′(3′H)-[1,3,5]triazino[1,2-a]benzimidazol]-2′-amine] | A (A represents less than 20% of increased proliferation of hFDPCs)
Cc1cc(C)cc(N2Cc3ccccc3C2)c1 [VII-12, 1H-Isoindole, 2-(3,5-dimethylphenyl)-2,3-dihydro-] | A (A represents less than 20% of increased proliferation of hFDPCs)
Oc1c2c(c(O)n1C1CCCCC1)CC=CC2 [VII-13, 1H-Isoindole-1,3(2H)-dione, 2-cyclohexyl-3a,4,7,7a-tetrahydro-] | A (A represents less than 20% of increased proliferation of hFDPCs)
Cc1cccc(CN2CCN(c3ncccn3)CC2)c1 [VII-15, Pyrimidine, 2-[4-[(3-methylphenyl)methyl]-1-piperazinyl]-] | A (A represents less than 20% of increased proliferation of hFDPCs)
COc1ccc(N(CC(=O)N2CCN(c3ccccc3OC)CC2)S(=O)(=O)c2ccccc2)cc1 [VII-16, Benzenesulfonamide, N-(4-methoxyphenyl)-N-[2-[4-(2-methoxyphenyl)-1-piperazinyl]-2-oxoethyl]-] | A (A represents less than 20% of increased proliferation of hFDPCs)
O=C1Nc2ccccc2SC1CC(=O)N1CCN(C(c2ccccc2)c2ccccc2)CC1 (stereo not drawn) [VII-17, 2H-1,4-Benzothiazin-3(4H)-one, 2-[2-[4-(diphenylmethyl)-1-piperazinyl]-2-oxoethyl]-] | A (A represents less than 20% of increased proliferation of hFDPCs)
O=C(c1cccs1)N1CCN(C(=O)c2cccc3ccccc23)CC1 [VII-18, Piperazine, 1-(1-naphthalenylcarbonyl)-4-(2-thienylcarbonyl)-(9CI)] | A (A represents less than 20% of increased proliferation of hFDPCs)
CC12C=CC(=O)C=C1CCC1C2C(O)CC2(C)C1CC[C@]2(O)C(=O)COC(=O)CCC(=O)O (stereo partly drawn) [VII-19, Pregna-1,4-diene-3, 20-dione, 21-(3-carboxy-1-oxopropoxy)-11,17-dihydroxy-, (11β)-] | A (A represents less than 20% of increased proliferation of hFDPCs)
CCN(Cc1ccccc1)C(=O)c1ccc(C(=O)N(CC)Cc2ccccc2)cc1 [VII-20, 1,4-Benzenedicarboxamide, N^1,N^4-diethyl-N^1, N^4-bis(phenylmethyl)-] | A (A represents less than 20% of increased proliferation of hFDPCs)
Cc1ccc(-c2nn(CC(=O)NCCc3c(C)n(C)c4ccccc34)c(=O)c3ccccc23)cc1S(=O)(=O)N1CCOCC1 [VII-21, 2(1H)-Phthalazineacetamide, N-[2-(1,2-dimethyl-1H-indol-3-yl)ethyl]-4-[4-methyl-3-(4-morpholinylsulfonyl)phenyl]-1-oxo-] | A (A represents less than 20% of increased proliferation of hFDPCs)
COc1ccc(CC(=O)Nc2sc3c(c2C(=O)Nc2cccc([N+](=O)[O-])c2)CCC(C)C3)cc1 (stereo not drawn) [VII-22, Benzo[b]thiophene-3-carboxamide, 4,5,6,7-tetrahydro-2-[[2-(4-methoxyphenyl)acetyl]amino]-6-methyl-N-(3-nitrophenyl)-] | A (A represents less than 20% of increased proliferation of hFDPCs)
COC(=O)c1cccc(NC(=O)c2cc(NC(=O)c3ccccc3)cc(C(=O)Nc3cccc(C(=O)OC)c3)c2)c1 [VII-23, Benzoic acid, 3,3′-[[5-(benzoylamino)-1,3-phenylene]bis(carbonylimino)] bis-, dimethyl ester (9CI)] | B (B represents 20-40%)
Cc1ccc(-c2nc3ncccc3o2)cc1NC(=S)NC(=O)c1ccc(C(C)(C)C)cc1 [VII-24, Benzamide, 4-(1,1-dimethylethyl)-N-[[(2-methyl-5-oxazolo[4,5-b]pyridin-2-ylphenyl)amino]thioxomethyl]-] | A (A represents less than 20% of increased proliferation of hFDPCs)
CC1(c2ccccc2)NC(=O)N(Cc2cc(=O)n3ccccc3n2)C1=O (stereo not drawn) [VII-25, 2,4-Imidazolidinedione, 5-methyl-3-[(4-oxo-4H-pyrido[1,2-a]pyrimidin-2-yl)methyl]-5-phenyl-] | B (B represents 20-40%)
Cc1ccccc1Cn1nc(C)c(NC(=O)c2csc3ccccc23)c1C [VII-26, Benzo[b]thiophene-3-carboxamide, N-[3,5-dimethyl-1-[(2-methylphenyl)methyl]-1H-pyrazol-4-yl]-] | A (A represents less than 20% of increased proliferation of hFDPCs)

tested on: TK.6 lymphoblasts; assay: TK.6 micronucleus assay; type: cell-based; conditions: 24 hr
Description: The safety/toxicology profiles of a compound or salt of the present disclosure was evaluated via a series of in vitro genotoxicity assays, including the SOS-chromotest to determine bacterial genotoxicity, and the TK.6 micronucleus assay to determine chromosomal damage and forward mutations. Standard reactive oxygen species (ROS) and caspase 3/7 assay were conducted to determine general cellular toxicity. Moreover, a series of sensitization tests were conducted to predict any potential skin sensitivity. These include the direct peptide reactivity assay to evaluate haptenization, the KeratinoSens reporter assay to determine potential sensitivity via the activation of a cytoprotective pathway, and an immunological assay using human immature monocyte-derived dendritic cells to evaluate any potential immunogenicity.
TK.6 lymphoblasts are a well-studied cell line commonly used for gene mutation analyses. They are heterozygous for the thymidine kinase gene (TK) and enable the detection of forward mutations and chromosomal damage, which manifests as micronuclei and are detectable via flow cytometry.
TK.6 cells were dosed with the example compounds or a vehicle control (0.1% v/v DMSO) and cultured with or without S9 metabolic activation for 24 hr. […] Methyl methanesulfonate, a known genotoxic, alkylating agent was used as a positive control for micronuclei detection.
The micronucleus assay was also performed to determine if the compounds are genotoxic by evaluating the presence of micronuclei. […] In combination. […] I-17 elicited genotoxicity at >3.125 μg/mL.

Compound | concentration at which genotoxicity was elicited in TK.6 micronuclei assay [ng/mL]
C=CCc1cc(/C=C2\C(=O)NC(=S)N(c3ccc(OC)cc3)C2=O)cc(OC)c1O [I-17] | > 3125

tested on: HepG2 cells; assay: Caspase 3/7 activity in HepG2 cells; type: cell-based; conditions: HepG2, >2-log concentration range, versus % v/v-matched DMSO
Description: (§1) Cells were treated with either the example compounds or vehicle control containing correspondingly % v/v-matched amounts of DMSO spanning a >2-log concentration range. Data represents mean±s.d. and representative of at least 2 experimental replicates.
as §1, with “HepG2 cells are an immortalized liver cell line commonly used to study apoptosis induced by small molecules. Cells” for “Cells”

Compound | Normalized caspase 3/7 activity
C=CCc1cc(/C=C2\C(=O)NC(=S)N(c3ccc(OC)cc3)C2=O)cc(OC)c1O [I-17] | significant caspase-3/7 activation at the highest concentration
